Measurements: US11006631B2, “Substituted pyrimidinyloxy pyridine derivatives as herbicides” (FMC Corporation, priority 2015, dated 2021)

How the values were obtained:
Format in all cases: in vivo
[1] = tested on: wheat (Triticum aestivum); test: Test A postemergence, wheat; conditions: 0 to 100 scale
Text: (§1) Seeds of plant species selected from bamyardgrass (Echinochloa crus-galli), kochia (Kochia scoparia), ragweed (common ragweed, Ambrosia elatior), ryegrass, Italian (Italian ryegrass, Lolium multiflorum), foxtail, giant (giant foxtail, Setaria faberii), pigweed (Amaranthus retroflexus), crabgrass, large (large crabgrass, Digitaria sanguinalis), momingglory (Ipomoea spp.), velvetleaf (Abutilon theophrasti), wheat (Triticum aestivum), and corn (Zea mays) were planted into a blend of loam soil and sand and treated preemergence with a directed soil spray using test chemicals formulated in a non-phytotoxic solvent mixture which included a surfactant. At the same time, plants selected from these crop and weed species and also blackgrass (Alopecurus myosuroides), and galium (catchweed bedstraw, Galium aparine) were planted in pots containing the same blend of loam soil and sand and treated with postemergence applications of test chemicals formulated in the same manner. Plants ranged in height from 2 to 10 cm and were in the one- to two-leaf stage for the postemergence treatment. Treated plants and untreated controls were maintained in a greenhouse for approximately 10 days, after which time all treated plants were compared to untreated controls and visually evaluated for injury. Plant response ratings, summarized in Table A, are based on a 0 to 100 scale where 0 is no effect and 100 is complete control. A dash (-) response means no test result.

[2] = tested on: ragweed (common ragweed, Ambrosia elatior); test: Test A postemergence, ragweed; conditions: 0 to 100 scale
Text: as §1

[3] = tested on: blackgrass (Alopecurus myosuroides); test: Test A postemergence, blackgrass; conditions: 0 to 100 scale
Text: as §1

[4] = tested on: foxtail, giant (giant foxtail, Setaria faberii); test: Test A postemergence, foxtail, giant; conditions: 0 to 100 scale
Text: as §1

[5] = tested on: sedge, umbrella (small-flower umbrella sedge, Cyperus difformis); test: Test B flooded paddy test, sedge, umbrella; conditions: Flood, 250 g ai/ha; scale of 0 to 100
Method: (§2) Plant species in the flooded paddy test selected from rice (Oryza sativa), sedge, umbrella (small-flower umbrella sedge, Cyperus difformis), ducksalad (Heteranthera limosa), and barnyardgrass (Echinochloa crus-galli) were grown to the 2-leaf stage for testing. At time of treatment, test pots were flooded to 3 cm above the soil surface, treated by application of test compounds directly to the paddy water, and then maintained at that water depth for the duration of the test. Treated plants and controls were maintained in a greenhouse for 13 to 15 days, after which time all species were compared to controls and visually evaluated. Plant response ratings, summarized in Table B, are based on a scale of 0 to 100 where 0 is no effect and 100 is complete control. A dash (-) response means no test result.

corn (Zea mays) = test: Test A postemergence, corn; conditions: 0 to 100 scale
Text: as §1

[6] = tested on: galium (catchweed bedstraw, Galium aparine); test: Test A postemergence, galium; conditions: 0 to 100 scale
Text: as §1

[7] = tested on: barnyardgrass (Echinochloa crus-galli); test: Test B flooded paddy test, barnyardgrass; conditions: Flood, 250 g ai/ha; scale of 0 to 100
Method: as §2

[8] = tested on: ryegrass, Italian (Italian ryegrass, Lolium multiflorum); test: Test A postemergence, ryegrass, Italian; conditions: 0 to 100 scale
Text: as §1

[9] = tested on: pigweed (Amaranthus retroflexus); test: Test A preemergence, pigweed; conditions: 0 to 100 scale
Text: as §1

kochia (Kochia scoparia) [10] = test: Test A preemergence, kochia; conditions: 0 to 100 scale
Text: as §1

[11] = tested on: ragweed (common ragweed, Ambrosia elatior); test: Test A preemergence, ragweed; conditions: 0 to 100 scale
Text: as §1

kochia (Kochia scoparia) [12] = test: Test A postemergence, kochia; conditions: 0 to 100 scale
Text: as §1

[13] = tested on: ducksalad (Heteranthera limosa); test: Test B flooded paddy test, ducksalad; conditions: Flood, 250 g ai/ha; scale of 0 to 100
Method: as §2

rice (Oryza sativa) = test: Test B flooded paddy test, rice; conditions: Flood, 250 g ai/ha; scale of 0 to 100
Method: as §2

[14] = tested on: ryegrass, Italian (Italian ryegrass, Lolium multiflorum); test: Test A preemergence, ryegrass, Italian; conditions: 0 to 100 scale
Text: as §1

[15] = tested on: barnyardgrass (Echinochloa crus-galli); test: Test A preemergence, barnyardgrass; conditions: 0 to 100 scale
Text: as §1

[16] = tested on: foxtail, giant (giant foxtail, Setaria faberii); test: Test A preemergence, foxtail, giant; conditions: 0 to 100 scale
Text: as §1

[17] = tested on: pigweed (Amaranthus retroflexus); test: Test A postemergence, pigweed; conditions: 0 to 100 scale
Text: as §1

[18] = tested on: barnyardgrass (Echinochloa crus-galli); test: Test A postemergence, barnyardgrass; conditions: 0 to 100 scale
Text: as §1

SMILES | Plant response rating, Wheat ([1]; 31 g ai/ha) | Plant response rating, Wheat ([1]; 125 g ai/ha) | Plant response rating, Ragweed ([2]; 31 g ai/ha) | Plant response rating, Ragweed ([2]; 125 g ai/ha) | Plant response rating, Blackgrass ([3]; 31 g ai/ha) | Plant response rating, Blackgrass ([3]; 125 g ai/ha) | Plant response rating, Foxtail, Giant ([4]; 31 g ai/ha) | Plant response rating, Foxtail, Giant ([4]; 125 g ai/ha) | Plant response rating, Sedge, Umbrella [5] | Plant response rating, Corn (corn (Zea mays); 31 g ai/ha) | Plant response rating, Corn (corn (Zea mays); 125 g ai/ha) | Plant response rating, Galium ([6]; 31 g ai/ha) | Plant response rating, Galium ([6]; 125 g ai/ha) | Plant response rating, Barnyardgrass [7] | Plant response rating, Ryegrass, Italian ([8]; 31 g ai/ha) | Plant response rating, Ryegrass, Italian ([8]; 125 g ai/ha) | Plant response rating, Pigweed ([9]; 31 g ai/ha) | Plant response rating, Pigweed ([9]; 125 g ai/ha) | Plant response rating, Kochia (kochia (Kochia scoparia) [10]; 31 g ai/ha) | Plant response rating, Kochia (kochia (Kochia scoparia) [10]; 125 g ai/ha) | also measured
FC(F)c1cc(-c2ncccc2Oc2ncc(Cl)cn2)no1 [Compound 6, 5-chloro-2-[[2-[5-(difluoromethyl)-3-isoxazolyl]-3-pyridinyl]oxy]pyrimidine] | 20 | 30 | 20 | 40 | 0 | 20 | 20 | 40 | 0 | 20 | 30 | 50 | 70 | 0 | 0 | 10 | 90 | 100 | 60 | 90 | Plant response rating, Ragweed ([11]; 31 g ai/ha): 0; Plant response rating, Ragweed ([11]; 125 g ai/ha): 50; Plant response rating, Kochia (kochia (Kochia scoparia) [12]; 31 g ai/ha): 90; Plant response rating, Kochia (kochia (Kochia scoparia) [12]; 125 g ai/ha): 100; Plant response rating, Ducksalad [13]: 30; Plant response rating, Rice (rice (Oryza sativa)): 0; Plant response rating, Ryegrass, Italian ([14]; 31 g ai/ha): 0; Plant response rating, Ryegrass, Italian ([14]; 125 g ai/ha): 0; Plant response rating, Barnyardgrass ([15]; 31 g ai/ha): 0; Plant response rating, Barnyardgrass ([15]; 125 g ai/ha): 70; Plant response rating, Foxtail, Giant ([16]; 31 g ai/ha): 0; Plant response rating, Foxtail, Giant ([16]; 125 g ai/ha): 90; Plant response rating, Pigweed ([17]; 31 g ai/ha): 70; Plant response rating, Pigweed ([17]; 125 g ai/ha): 100; Plant response rating, Barnyardgrass ([18]; 31 g ai/ha): 10; Plant response rating, Barnyardgrass ([18]; 125 g ai/ha): 30
Fc1cnc(Oc2cccnc2-c2cc(C(F)F)no2)nc1 [Compound 7] | 0 | 20 | 0 | 10 | 0 | 0 | 0 | 0 | 0 | 0 | 0 | 20 | 50 | 0 | 0 | 0 | 70 | 100 | 20 | 70 | Plant response rating, Ragweed ([11]; 31 g ai/ha): 0; Plant response rating, Ragweed ([11]; 125 g ai/ha): 30; Plant response rating, Kochia (kochia (Kochia scoparia) [12]; 31 g ai/ha): 70; Plant response rating, Kochia (kochia (Kochia scoparia) [12]; 125 g ai/ha): 90; Plant response rating, Ducksalad [13]: 50; Plant response rating, Rice (rice (Oryza sativa)): 0; Plant response rating, Ryegrass, Italian ([14]; 31 g ai/ha): 0; Plant response rating, Ryegrass, Italian ([14]; 125 g ai/ha): 0; Plant response rating, Barnyardgrass ([15]; 31 g ai/ha): 0; Plant response rating, Barnyardgrass ([15]; 125 g ai/ha): 20; Plant response rating, Foxtail, Giant ([16]; 31 g ai/ha): 0; Plant response rating, Foxtail, Giant ([16]; 125 g ai/ha): 20; Plant response rating, Pigweed ([17]; 31 g ai/ha): 20; Plant response rating, Pigweed ([17]; 125 g ai/ha): 70; Plant response rating, Barnyardgrass ([18]; 31 g ai/ha): 0; Plant response rating, Barnyardgrass ([18]; 125 g ai/ha): 0
[O-][n+]1cccc(Oc2ncc(Cl)cn2)c1-c1cc(C(F)F)on1 [Compound 8, 5-chloro-2-[[2-[5-(difluoromethyl)-3-isoxazolyl]-1-oxido-3-pyridinyl]oxy]pyrimidine] | 10 | 20 | 30 | 50 | 0 | 10 | 0 | 10 | 0 | 0 | 20 | 40 | 60 | 0 | 0 | 0 | 40 | 90 | 0 | 40 | Plant response rating, Ragweed ([11]; 31 g ai/ha): 0; Plant response rating, Ragweed ([11]; 125 g ai/ha): 0; Plant response rating, Kochia (kochia (Kochia scoparia) [12]; 31 g ai/ha): 40; Plant response rating, Kochia (kochia (Kochia scoparia) [12]; 125 g ai/ha): 70; Plant response rating, Ducksalad [13]: 40; Plant response rating, Rice (rice (Oryza sativa)): 0; Plant response rating, Ryegrass, Italian ([14]; 31 g ai/ha): 0; Plant response rating, Ryegrass, Italian ([14]; 125 g ai/ha): 0; Plant response rating, Barnyardgrass ([15]; 31 g ai/ha): 0; Plant response rating, Barnyardgrass ([15]; 125 g ai/ha): 0; Plant response rating, Foxtail, Giant ([16]; 31 g ai/ha): 0; Plant response rating, Foxtail, Giant ([16]; 125 g ai/ha): 10; Plant response rating, Pigweed ([17]; 31 g ai/ha): 50; Plant response rating, Pigweed ([17]; 125 g ai/ha): 70; Plant response rating, Barnyardgrass ([18]; 31 g ai/ha): 0; Plant response rating, Barnyardgrass ([18]; 125 g ai/ha): 10
[O-][n+]1cccc(Oc2ncc(F)cn2)c1-n1cc(Cl)cn1 [Compound 9] | 0 | 0 | 10 | 30 | 0 | 0 | 0 | 0 | 0 | 0 | 0 | 10 | 30 | 0 | 0 | 0 | 0 | 20 | 0 | 0 | Plant response rating, Ragweed ([11]; 31 g ai/ha): 0; Plant response rating, Ragweed ([11]; 125 g ai/ha): 0; Plant response rating, Kochia (kochia (Kochia scoparia) [12]; 31 g ai/ha): 10; Plant response rating, Kochia (kochia (Kochia scoparia) [12]; 125 g ai/ha): 50; Plant response rating, Ducksalad [13]: 0; Plant response rating, Rice (rice (Oryza sativa)): 0; Plant response rating, Ryegrass, Italian ([14]; 31 g ai/ha): 0; Plant response rating, Ryegrass, Italian ([14]; 125 g ai/ha): 0; Plant response rating, Barnyardgrass ([15]; 31 g ai/ha): 0; Plant response rating, Barnyardgrass ([15]; 125 g ai/ha): 0; Plant response rating, Foxtail, Giant ([16]; 31 g ai/ha): 0; Plant response rating, Foxtail, Giant ([16]; 125 g ai/ha): 0; Plant response rating, Pigweed ([17]; 31 g ai/ha): 30; Plant response rating, Pigweed ([17]; 125 g ai/ha): 50; Plant response rating, Barnyardgrass ([18]; 31 g ai/ha): 0; Plant response rating, Barnyardgrass ([18]; 125 g ai/ha): 0
[O-][n+]1cccc(Oc2ncc(Cl)cn2)c1-n1cc(Br)cn1 [Compound 11] |  |  |  |  |  |  |  |  |  |  |  |  |  |  |  |  |  |  |  |  | Plant response rating, Wheat ([1]; 1000 g ai/ha): 0; Plant response rating, Ragweed ([2]; 1000 g ai/ha): 20; Plant response rating, Blackgrass ([3]; 1000 g ai/ha): 10; Plant response rating, Foxtail, Giant ([4]; 1000 g ai/ha): 0; Plant response rating, Corn (corn (Zea mays); 1000 g ai/ha): 0; Plant response rating, Galium ([6]; 1000 g ai/ha): 40; Plant response rating, Ryegrass, Italian ([8]; 1000 g ai/ha): 0; Plant response rating, Pigweed ([9]; 1000 g ai/ha): 100; Plant response rating, Kochia (kochia (Kochia scoparia) [10]; 1000 g ai/ha): 30; Plant response rating, Ragweed ([11]; 1000 g ai/ha): 30; Plant response rating, Kochia (kochia (Kochia scoparia) [12]; 1000 g ai/ha): 60; Plant response rating, Ryegrass, Italian ([14]; 1000 g ai/ha): 0; Plant response rating, Barnyardgrass ([15]; 1000 g ai/ha): 0; Plant response rating, Foxtail, Giant ([16]; 1000 g ai/ha): 0; Plant response rating, Pigweed ([17]; 1000 g ai/ha): 90; Plant response rating, Barnyardgrass ([18]; 1000 g ai/ha): 0
